The source of these data is ChEMBL document CHEMBL5678818, “Discovery of potent SOS1 inhibitors that block RAS activation via disruption of the RAS-SOS1 interaction” (Proc Natl Acad Sci U S A, 2019).

For experiment [1], the target named is T1, Ankyrin repeat and protein kinase domain-containing protein 1 (Homo sapiens) (UniProt Q8NFD2).
T1 sequence (whole entry): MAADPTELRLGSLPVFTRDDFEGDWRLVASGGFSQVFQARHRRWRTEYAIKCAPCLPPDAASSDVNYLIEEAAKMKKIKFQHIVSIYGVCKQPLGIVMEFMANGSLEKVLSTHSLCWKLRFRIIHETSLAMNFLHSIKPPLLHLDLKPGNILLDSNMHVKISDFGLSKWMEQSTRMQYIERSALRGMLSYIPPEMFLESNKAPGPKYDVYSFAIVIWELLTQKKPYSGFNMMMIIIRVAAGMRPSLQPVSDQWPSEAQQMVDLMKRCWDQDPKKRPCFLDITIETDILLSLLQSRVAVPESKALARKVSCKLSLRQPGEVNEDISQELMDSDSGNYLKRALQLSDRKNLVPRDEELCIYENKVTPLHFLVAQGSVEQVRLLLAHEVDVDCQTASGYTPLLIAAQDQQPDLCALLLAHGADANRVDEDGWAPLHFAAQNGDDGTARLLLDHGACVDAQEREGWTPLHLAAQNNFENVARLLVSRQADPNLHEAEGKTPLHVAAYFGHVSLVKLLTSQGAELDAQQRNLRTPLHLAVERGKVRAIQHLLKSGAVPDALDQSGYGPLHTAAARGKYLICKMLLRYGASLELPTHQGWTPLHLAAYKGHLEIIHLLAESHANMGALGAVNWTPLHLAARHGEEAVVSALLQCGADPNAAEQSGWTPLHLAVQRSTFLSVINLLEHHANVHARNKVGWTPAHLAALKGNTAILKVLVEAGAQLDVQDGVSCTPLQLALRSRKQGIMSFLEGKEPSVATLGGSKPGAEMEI
Briefly: Inhibition of ANKK1 (unknown origin) assessed as residual activity at 1000 nM by KINOMEscan analysis relative to control.

The species entered for another experiment is Homo sapiens. As to the kind of experiment: Inhibition of JNK3 (unknown origin) assessed as residual activity at 1000 nM by KINOMEscan analysis relative to control.
For experiment [2], the target named is cAMP-dependent protein kinase catalytic subunit beta (Homo sapiens) (UniProt P22694). As to the kind of experiment: Inhibition of PKAC-beta (unknown origin) assessed as residual activity at 1000 nM by KINOMEscan analysis relative to control.
Experiment [3] has as its target Serine/threonine-protein kinase PLK3 (Homo sapiens) (UniProt Q9H4B4). As to the kind of experiment: Inhibition of PLK3 (unknown origin) assessed as residual activity at 1000 nM by KINOMEscan analysis relative to control.
The target of experiment [4] is Serine/threonine-protein kinase mTOR (Homo sapiens) (UniProt P42345). As to the kind of experiment: Inhibition of MTOR (unknown origin) assessed as residual activity at 1000 nM by KINOMEscan analysis relative to control.
The target in experiment [5] is Serine/threonine-protein kinase B-raf (Homo sapiens) (UniProt P15056). As to the kind of experiment: Inhibition of BRAF (unknown origin) assessed as residual activity at 1000 nM by KINOMEscan analysis relative to control.
Experiment [6] has as its target T2, MAP/microtubule affinity-regulating kinase 4 (Homo sapiens) (UniProt Q96L34).
T2 sequence (whole entry): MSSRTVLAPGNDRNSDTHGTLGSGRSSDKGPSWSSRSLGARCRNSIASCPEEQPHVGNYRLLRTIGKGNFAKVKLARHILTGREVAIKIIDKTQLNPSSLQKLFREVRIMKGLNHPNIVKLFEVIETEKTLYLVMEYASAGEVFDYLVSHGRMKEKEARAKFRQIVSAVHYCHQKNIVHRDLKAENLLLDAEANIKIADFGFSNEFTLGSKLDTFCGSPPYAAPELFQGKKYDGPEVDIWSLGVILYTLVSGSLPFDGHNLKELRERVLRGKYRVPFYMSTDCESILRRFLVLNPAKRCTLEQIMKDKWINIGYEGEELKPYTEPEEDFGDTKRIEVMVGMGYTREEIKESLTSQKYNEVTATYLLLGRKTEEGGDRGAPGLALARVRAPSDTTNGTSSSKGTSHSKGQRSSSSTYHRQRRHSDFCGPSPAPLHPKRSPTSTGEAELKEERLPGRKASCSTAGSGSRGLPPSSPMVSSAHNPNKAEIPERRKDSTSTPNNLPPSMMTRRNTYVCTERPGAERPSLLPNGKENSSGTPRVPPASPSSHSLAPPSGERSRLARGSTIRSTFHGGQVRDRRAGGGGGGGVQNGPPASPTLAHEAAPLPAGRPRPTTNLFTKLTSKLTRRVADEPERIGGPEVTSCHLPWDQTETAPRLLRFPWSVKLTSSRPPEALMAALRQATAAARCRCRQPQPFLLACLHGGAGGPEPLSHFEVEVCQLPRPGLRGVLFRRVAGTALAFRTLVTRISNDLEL
Briefly: Inhibition of MARK4 (unknown origin) assessed as residual activity at 1000 nM by KINOMEscan analysis relative to control.

The target in experiment [7] is MAP/microtubule affinity-regulating kinase 3 (Homo sapiens) (UniProt P27448). As to the kind of experiment: Inhibition of MARK3 (unknown origin) assessed as residual activity at 1000 nM by KINOMEscan analysis relative to control.
For experiment [8], the target named is T3, Dual specificity mitogen-activated protein kinase kinase 6 (Homo sapiens) (UniProt P52564).
T3 sequence (whole entry): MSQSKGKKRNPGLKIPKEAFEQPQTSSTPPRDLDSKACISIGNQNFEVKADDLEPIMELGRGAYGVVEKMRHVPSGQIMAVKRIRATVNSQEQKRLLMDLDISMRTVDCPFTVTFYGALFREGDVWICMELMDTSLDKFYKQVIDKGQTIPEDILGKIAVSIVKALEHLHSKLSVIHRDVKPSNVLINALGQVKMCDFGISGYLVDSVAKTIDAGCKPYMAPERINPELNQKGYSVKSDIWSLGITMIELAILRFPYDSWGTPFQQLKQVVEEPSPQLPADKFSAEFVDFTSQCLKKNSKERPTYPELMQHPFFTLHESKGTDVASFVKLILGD
Briefly: Inhibition of MEK6 (unknown origin) assessed as residual activity at 1000 nM by KINOMEscan analysis relative to control.

For experiment [9], the target named is Mitogen-activated protein kinase kinase kinase 20 (Homo sapiens) (UniProt Q9NYL2). Briefly: Inhibition of ZAK (unknown origin) assessed as residual activity at 1000 nM by KINOMEscan analysis relative to control.
Experiment [10] addresses Receptor tyrosine-protein kinase erbB-4 (Homo sapiens) (UniProt Q15303). Briefly: Inhibition of ERBB4 (unknown origin) assessed as residual activity at 1000 nM by KINOMEscan analysis relative to control.
The target of experiment [11] is Tyrosine-protein kinase Fer (Homo sapiens) (UniProt P16591). As to the kind of experiment: Inhibition of FER (unknown origin) assessed as residual activity at 1000 nM by KINOMEscan analysis relative to control.
Tyrosine-protein kinase Fer (Homo sapiens), sequence (P16591 whole entry, looked up): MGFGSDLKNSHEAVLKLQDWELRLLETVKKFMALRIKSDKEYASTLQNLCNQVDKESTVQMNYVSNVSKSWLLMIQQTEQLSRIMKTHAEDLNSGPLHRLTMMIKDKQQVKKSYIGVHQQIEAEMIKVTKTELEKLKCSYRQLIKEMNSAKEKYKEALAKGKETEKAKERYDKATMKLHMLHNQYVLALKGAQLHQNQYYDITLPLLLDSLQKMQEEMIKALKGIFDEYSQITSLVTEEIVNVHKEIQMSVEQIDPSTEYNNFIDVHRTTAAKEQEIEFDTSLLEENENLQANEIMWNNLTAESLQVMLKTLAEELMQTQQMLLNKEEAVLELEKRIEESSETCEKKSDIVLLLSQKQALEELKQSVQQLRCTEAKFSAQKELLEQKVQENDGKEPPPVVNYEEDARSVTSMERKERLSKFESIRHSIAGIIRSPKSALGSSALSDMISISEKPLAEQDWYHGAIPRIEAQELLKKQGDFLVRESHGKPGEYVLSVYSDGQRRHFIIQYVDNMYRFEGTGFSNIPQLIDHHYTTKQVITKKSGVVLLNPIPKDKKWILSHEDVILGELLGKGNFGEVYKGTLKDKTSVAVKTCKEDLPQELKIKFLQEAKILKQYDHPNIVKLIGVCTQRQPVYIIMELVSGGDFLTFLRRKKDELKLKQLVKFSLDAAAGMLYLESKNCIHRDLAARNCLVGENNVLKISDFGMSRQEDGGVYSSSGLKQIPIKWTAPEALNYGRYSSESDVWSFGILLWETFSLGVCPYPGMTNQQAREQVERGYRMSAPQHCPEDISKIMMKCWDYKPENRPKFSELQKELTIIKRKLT

MAP/microtubule affinity-regulating kinase 3 (Homo sapiens), sequence (P27448 whole entry, looked up): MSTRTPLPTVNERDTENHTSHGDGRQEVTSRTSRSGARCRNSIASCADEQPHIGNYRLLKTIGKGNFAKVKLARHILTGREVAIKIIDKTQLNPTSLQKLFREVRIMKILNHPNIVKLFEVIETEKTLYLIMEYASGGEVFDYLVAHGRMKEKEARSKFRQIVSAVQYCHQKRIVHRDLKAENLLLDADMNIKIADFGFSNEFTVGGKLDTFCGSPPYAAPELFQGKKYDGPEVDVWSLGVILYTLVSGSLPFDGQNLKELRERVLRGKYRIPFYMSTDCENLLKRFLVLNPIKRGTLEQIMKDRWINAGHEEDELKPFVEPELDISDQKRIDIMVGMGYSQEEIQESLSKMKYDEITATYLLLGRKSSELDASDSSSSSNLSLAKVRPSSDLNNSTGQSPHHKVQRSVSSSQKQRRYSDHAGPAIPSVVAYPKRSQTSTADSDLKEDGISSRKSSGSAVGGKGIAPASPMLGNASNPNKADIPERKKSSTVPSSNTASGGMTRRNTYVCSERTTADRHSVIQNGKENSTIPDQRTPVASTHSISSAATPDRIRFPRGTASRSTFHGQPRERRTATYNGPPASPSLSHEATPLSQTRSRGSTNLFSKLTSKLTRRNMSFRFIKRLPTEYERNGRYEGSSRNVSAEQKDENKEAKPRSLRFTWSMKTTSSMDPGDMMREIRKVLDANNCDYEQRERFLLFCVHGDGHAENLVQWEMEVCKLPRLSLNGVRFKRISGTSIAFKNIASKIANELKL
Serine/threonine-protein kinase PLK3 (Homo sapiens), sequence (Q9H4B4 whole entry, looked up): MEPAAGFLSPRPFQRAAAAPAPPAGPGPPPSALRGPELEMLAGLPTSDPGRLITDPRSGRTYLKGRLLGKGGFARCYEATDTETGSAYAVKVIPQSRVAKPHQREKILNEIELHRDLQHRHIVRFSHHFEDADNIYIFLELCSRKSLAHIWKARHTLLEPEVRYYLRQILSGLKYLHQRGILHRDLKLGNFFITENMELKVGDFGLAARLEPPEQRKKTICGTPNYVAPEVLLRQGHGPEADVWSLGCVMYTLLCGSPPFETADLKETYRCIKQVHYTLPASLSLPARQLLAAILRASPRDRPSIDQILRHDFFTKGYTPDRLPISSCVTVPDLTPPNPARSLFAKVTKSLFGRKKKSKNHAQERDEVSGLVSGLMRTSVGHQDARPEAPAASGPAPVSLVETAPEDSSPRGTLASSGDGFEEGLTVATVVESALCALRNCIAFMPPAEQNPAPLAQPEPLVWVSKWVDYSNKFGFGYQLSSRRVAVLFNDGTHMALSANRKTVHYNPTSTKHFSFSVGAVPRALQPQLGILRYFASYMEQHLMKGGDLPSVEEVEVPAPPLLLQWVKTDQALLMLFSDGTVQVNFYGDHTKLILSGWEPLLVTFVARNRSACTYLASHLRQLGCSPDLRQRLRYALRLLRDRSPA
Serine/threonine-protein kinase B-raf (Homo sapiens), sequence (P15056 whole entry): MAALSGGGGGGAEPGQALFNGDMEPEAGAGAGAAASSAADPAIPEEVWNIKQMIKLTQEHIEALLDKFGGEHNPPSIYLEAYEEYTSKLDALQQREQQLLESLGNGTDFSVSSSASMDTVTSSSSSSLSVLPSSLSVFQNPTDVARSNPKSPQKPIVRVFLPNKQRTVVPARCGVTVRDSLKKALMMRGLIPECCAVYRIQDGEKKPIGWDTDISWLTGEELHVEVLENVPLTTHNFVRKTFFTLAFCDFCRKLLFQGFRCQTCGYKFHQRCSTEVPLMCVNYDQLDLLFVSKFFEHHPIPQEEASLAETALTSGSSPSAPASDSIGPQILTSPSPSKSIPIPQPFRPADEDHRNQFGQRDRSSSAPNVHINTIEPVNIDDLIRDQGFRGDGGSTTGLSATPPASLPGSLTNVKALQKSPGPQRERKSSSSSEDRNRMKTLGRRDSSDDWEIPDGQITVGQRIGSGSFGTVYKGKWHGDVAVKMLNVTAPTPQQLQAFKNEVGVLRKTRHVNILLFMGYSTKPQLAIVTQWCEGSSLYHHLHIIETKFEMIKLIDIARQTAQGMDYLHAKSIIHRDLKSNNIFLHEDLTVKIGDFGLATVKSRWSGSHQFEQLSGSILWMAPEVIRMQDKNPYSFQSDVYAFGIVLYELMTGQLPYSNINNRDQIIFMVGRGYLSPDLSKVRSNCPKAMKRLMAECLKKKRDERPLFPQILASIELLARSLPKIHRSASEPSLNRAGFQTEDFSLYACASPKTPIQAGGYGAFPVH
Receptor tyrosine-protein kinase erbB-4 (Homo sapiens), sequence (Q15303 whole entry): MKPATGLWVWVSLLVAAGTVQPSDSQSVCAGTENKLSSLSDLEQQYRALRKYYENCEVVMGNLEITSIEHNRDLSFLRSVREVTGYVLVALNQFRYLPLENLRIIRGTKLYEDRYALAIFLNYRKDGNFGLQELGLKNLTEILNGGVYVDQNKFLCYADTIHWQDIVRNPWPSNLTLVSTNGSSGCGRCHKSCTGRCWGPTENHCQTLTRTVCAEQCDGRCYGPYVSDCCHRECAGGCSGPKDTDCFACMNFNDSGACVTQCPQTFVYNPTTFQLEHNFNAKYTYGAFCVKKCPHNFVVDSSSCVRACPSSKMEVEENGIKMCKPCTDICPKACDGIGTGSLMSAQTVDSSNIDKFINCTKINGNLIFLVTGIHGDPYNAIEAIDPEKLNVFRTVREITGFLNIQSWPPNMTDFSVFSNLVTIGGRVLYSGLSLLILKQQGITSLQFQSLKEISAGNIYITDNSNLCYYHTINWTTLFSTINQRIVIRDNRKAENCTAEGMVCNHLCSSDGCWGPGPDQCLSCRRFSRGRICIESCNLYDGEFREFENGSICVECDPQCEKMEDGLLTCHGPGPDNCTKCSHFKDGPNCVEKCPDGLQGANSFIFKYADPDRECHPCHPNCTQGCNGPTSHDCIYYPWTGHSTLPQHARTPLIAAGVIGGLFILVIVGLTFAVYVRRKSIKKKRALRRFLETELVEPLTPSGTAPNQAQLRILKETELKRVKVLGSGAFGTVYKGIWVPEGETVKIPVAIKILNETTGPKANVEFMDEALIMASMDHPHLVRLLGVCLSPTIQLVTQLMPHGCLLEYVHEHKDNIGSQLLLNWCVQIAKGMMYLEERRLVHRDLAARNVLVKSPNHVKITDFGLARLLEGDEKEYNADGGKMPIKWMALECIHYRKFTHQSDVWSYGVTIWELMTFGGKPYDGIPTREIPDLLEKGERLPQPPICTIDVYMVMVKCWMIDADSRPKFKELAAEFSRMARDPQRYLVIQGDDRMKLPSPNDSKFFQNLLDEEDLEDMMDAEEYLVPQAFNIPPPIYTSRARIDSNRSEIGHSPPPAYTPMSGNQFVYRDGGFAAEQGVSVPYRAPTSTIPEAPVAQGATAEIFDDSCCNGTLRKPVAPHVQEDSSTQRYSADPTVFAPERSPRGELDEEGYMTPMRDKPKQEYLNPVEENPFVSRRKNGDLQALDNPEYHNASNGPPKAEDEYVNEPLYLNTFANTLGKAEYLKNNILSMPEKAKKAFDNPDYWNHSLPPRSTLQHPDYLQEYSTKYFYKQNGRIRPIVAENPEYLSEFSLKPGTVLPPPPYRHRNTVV
Mitogen-activated protein kinase kinase kinase 20 (Homo sapiens), sequence (Q9NYL2 2-800 limits assumed): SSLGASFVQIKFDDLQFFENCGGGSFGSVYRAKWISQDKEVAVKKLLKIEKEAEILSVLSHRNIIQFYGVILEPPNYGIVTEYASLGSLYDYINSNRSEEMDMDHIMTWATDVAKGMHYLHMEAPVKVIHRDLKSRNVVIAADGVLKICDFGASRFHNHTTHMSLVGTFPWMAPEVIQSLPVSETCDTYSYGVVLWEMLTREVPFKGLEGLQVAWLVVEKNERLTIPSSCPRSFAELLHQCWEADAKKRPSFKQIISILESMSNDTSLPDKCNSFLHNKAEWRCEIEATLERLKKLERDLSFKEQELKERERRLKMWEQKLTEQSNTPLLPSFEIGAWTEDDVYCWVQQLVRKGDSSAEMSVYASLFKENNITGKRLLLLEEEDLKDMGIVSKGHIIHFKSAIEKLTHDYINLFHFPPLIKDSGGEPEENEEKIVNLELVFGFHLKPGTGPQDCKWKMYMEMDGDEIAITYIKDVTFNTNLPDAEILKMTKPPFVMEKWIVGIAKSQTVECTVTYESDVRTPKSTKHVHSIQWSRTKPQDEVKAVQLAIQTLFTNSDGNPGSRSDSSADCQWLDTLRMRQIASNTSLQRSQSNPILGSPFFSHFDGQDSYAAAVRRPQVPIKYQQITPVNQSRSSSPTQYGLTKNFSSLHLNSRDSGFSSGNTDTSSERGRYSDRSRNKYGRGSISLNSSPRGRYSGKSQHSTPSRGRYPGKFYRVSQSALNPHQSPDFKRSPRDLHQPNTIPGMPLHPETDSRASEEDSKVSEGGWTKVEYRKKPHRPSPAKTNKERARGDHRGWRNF

Regarding `COc1cc2nc(C)nc(N[C@H](C)c3cccc(-c4cn[nH]c4)c3)c2cc1OC`, the Activity in experiment [1] was determined as 77%; in the experiment listed under Homo sapiens, 80%; in [2], 73%; in experiment [3] it was 88%; in experiment [4] it was 62%; in [5], 75%. Besides, the Activity was 88% in experiment [6]; 100% in [7]; 91% in [8]; 89% in experiment [9]; 89% in experiment [10]; 99% in experiment [11].
Take `COc1cc2ncnc(N[C@H](C)c3cccc4ccccc34)c2cc1OC`: the Activity is 96% in experiment [1]; 97% in the experiment listed under Homo sapiens; 100% in experiment [2]; 81% in [3]; 95% in [4]; 91% in experiment [5]. In addition, the Activity was 66% in experiment [6]; 64% in [7]; 100% in experiment [8]; 89% in experiment [9]; 46% in [10]; 97% in [11].
